The test system of one experiment is karpas 299 cells. The experiment in a line: Measurement of inhibition of cell proliferation (Karpas), ATPlite. In kind it is cell-based. The settings on record: Homo sapiens, KARPAS-299, 72 h. The procedure:
Measurement of Inhibition of Cell Proliferation (Karpas):
The antiproliferative activities of the compounds were measured using the ATPlite technique (Perkin Elmer).
The non-adhering cells (karpas 299) are seeded in 96-well plates (300 000 cells/ml) on Day 1 at a concentration compatible with logarithmic growth for 72 hours required for evaluation of the compounds. All the cells are treated on Day 1, then placed in an incubator at 37° C. under 5% CO2 atmosphere. Cell viability is evaluated on Day 4 by assay of released ATP, characteristic of viable cells. The IC50 values are determined by non-linear regression on the basis of a sigmoid model of dose/response relationship, Hill's slope coefficient being left variable, performed using GraphPad software sequence with the supplied algorithm.

A further experiment deals with ALK kinase (Homo sapiens, UniProt Q9UM73). The experiment in a line: Test to measure ALK kinase inhibition (GST-PLCγ1 substrate, anti-phosphotyrosine ELISA, luminescence). It is filed as biochemical. The conditions noted are these: ALK kinase 180 ng/ml, 250 μM ATP, 30 minutes at 30° C. The procedure: Test to Measure ALK Kinase Inhibition
Sequence of ALK kinase (Q9UM73 19-1620): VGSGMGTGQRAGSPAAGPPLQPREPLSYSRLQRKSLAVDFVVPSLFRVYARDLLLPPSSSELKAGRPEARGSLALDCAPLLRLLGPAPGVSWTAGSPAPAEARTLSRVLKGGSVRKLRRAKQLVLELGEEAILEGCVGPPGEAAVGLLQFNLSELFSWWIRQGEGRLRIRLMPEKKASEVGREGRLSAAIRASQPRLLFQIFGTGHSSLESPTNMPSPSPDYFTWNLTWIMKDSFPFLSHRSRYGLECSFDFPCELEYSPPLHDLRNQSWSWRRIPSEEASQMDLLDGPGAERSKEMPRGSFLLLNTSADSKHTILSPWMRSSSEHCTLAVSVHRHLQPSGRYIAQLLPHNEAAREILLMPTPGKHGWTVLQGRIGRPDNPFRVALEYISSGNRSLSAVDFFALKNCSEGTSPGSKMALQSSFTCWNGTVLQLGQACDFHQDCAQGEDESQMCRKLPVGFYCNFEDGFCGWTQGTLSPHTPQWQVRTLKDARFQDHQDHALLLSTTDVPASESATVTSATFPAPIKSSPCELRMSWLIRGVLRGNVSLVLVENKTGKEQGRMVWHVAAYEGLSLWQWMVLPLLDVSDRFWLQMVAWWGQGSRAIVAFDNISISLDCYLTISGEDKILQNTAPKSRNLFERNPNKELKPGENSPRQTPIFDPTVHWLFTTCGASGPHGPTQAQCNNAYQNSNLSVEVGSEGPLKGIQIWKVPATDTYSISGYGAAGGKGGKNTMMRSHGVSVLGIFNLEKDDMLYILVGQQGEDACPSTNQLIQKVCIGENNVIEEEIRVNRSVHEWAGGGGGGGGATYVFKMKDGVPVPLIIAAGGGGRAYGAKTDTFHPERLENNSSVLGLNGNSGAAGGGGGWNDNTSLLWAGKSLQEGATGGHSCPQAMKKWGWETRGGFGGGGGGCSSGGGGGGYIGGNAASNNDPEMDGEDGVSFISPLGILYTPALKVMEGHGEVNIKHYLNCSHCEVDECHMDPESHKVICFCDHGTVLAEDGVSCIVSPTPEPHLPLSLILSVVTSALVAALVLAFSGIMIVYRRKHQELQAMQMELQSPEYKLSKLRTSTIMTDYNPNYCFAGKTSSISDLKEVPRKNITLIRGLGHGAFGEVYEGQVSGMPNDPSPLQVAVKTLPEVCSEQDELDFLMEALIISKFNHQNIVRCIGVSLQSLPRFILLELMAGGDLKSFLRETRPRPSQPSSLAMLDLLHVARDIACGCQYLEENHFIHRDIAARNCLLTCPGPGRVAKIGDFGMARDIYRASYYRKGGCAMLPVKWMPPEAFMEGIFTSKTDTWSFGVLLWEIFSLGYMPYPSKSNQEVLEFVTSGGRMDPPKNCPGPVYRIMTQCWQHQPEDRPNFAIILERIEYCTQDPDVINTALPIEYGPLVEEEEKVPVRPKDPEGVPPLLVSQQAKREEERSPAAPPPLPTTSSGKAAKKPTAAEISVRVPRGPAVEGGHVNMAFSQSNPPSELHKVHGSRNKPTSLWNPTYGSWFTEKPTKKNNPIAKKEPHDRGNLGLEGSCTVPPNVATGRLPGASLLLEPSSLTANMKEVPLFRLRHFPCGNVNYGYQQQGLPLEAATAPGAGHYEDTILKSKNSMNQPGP
A ViewPlate (Packard) is incubated with the GST-PLCγ1 substrate (purified recombinant form) at 0.1 mg/ml in phosphate buffer (PBS pH 7.4)(100 μl/well) for one hour under shaking. The plate is then saturated with a blocking solution containing 5% bovine serum albumin (BSA) (SIGMA) in PBS buffer pH 7.4.
After adding the inhibitor at the desired final concentration (usual range of 30 μM to 10 nM), the reaction is conducted by adding the ALK kinase at 180 ng/ml in 13 mM Tris reaction buffer pH 7.5 (SIGMA); 6.5 mM MgCl2 (MERCK); 0.65 mM DiThioThreitol (DTT) (ACROS); 39 mM sodium β-glycerophosphate (TCI); 0.65 mM sodium orthovanadate (SIGMA) and 250 μM ATP (SIGMA). Incubation is carried out for 30 minutes at 30° C. under shaking.
After three washings under shaking in 0.1% PBS/Tween-20 buffer (SIGMA), an anti-phosphotyrosine antibody coupled with HRP (UBI) diluted to 1/1000th in PBS/BSA buffer 5 mg/ml, is incubated for one hour under shaking. After three further washings in 0.1% PBS/Tween-20, the wells are incubated two minutes with 100 μl of SuperSignal ELISA mixture (PIERCE).
The signal is read in luminescent mode using a luminometer (MOLECULAR DEVICES SpectraMax M5e).

Consider `Cc1n[nH]c2nc(-c3ccc(O)cc3F)c(C#N)c(-c3ccc(N(C)C)cc3)c12` [Compound 116], for which the IC50 lay within 1000 to 10000 nM with karpas 299 cells and 100 to 1000 nM on ALK kinase.

As for `Cc1n[nH]c2nc(-c3ccc(O)cc3)c(C#N)c(-c3ccc(O)cc3)c12` [Compound 19], the IC50 in the experiment with karpas 299 cells lay in the range of 1000 to 10000 nM; on ALK kinase it was 100 to 1000 nM. The matching figures for `N#Cc1c(-c2ccc(O)cc2)nc2[nH]ncc2c1-c1ccc(CN)cc1` [Compound 53]: 1000 to 10000 nM and 100 to 1000 nM. For `N#Cc1c(-c2ccc(O)cc2F)nc2[nH]nc(N)c2c1-c1ccc(N2CC3CNCC3C2)o1` (stereo not shown) [Compound 164] the same measures were above 10000 nM and 100 to 1000 nM. For `N#Cc1c(-c2ccc(O)cc2)nc2[nH]ncc2c1-c1cccc(N2CCNCC2)c1` [Compound 68] the same measures were 1000 to 10000 nM and 100 to 1000 nM. For `Cc1c(C#N)c(-c2ccc(O)cc2F)nc2[nH]nc(-c3csc(C4CCNCC4)n3)c12` [Compound 108], the values for the IC50 with karpas 299 cells and on ALK kinase were 1000 to 10000 nM and below 100 nM, respectively.

Turning to `Cc1n[nH]c2nc(-c3ccc(O)c(F)c3F)c(C#N)c(-c3ccc(N4CCNCC4)cc3)c12` [Compound 277], the IC50 with karpas 299 cells was above 10000 nM; against ALK kinase, 100 to 1000 nM.

Take `N#Cc1cc2c(-c3ccc(N4CCNCC4)cc3)n[nH]c2nc1-c1ccc(O)cc1` [Compound 102]: the IC50 in the experiment with karpas 299 cells was 100 to 1000 nM; against ALK kinase, below 100 nM.

Take `N#Cc1c(-c2ccc(O)cc2F)nc2[nH]nc(N)c2c1-c1ccco1` [Compound 93]: the figures for the half-inhibitory concentration (IC50) with karpas 299 cells and at ALK kinase were 100 to 1000 nM and above 10000 nM, respectively. For `N#Cc1c(-c2ccnc(O)c2)nc2[nH]nc(-c3cccs3)c2c1-c1ccc(N2CCNCC2)cc1` [Compound 282] the same measures were above 10000 nM and 1000 to 10000 nM.

As for `COc1cc(-c2cc3[nH]ncc3c(-c3ccco3)c2C#N)ccc1O` [Compound 74], the IC50 against ALK kinase lay in the range of 100 to 1000 nM.

For `N#Cc1c(-c2ccc(O)cc2F)nc2[nH]nc(N)c2c1-c1ccc(C2=CCNCC2)cc1` [Compound 186], the IC50 was 1000 to 10000 nM in the experiment with karpas 299 cells and below 100 nM at ALK kinase.

Consider `Cc1n[nH]c2nc(-c3c(F)ccc(F)c3F)c(C#N)c(-c3ccc(N4CCC(N)CC4)o3)c12` [Compound 253], for which the IC50 with karpas 299 cells fell in the range of 1000 to 10000 nM; at ALK kinase, 100 to 1000 nM.

`N#Cc1c(-c2ccc(O)cc2F)nc2[nH]ncc2c1-c1ccc(N2CCOCC2)o1` [Compound 86]: the IC50 was 1000 to 10000 nM with karpas 299 cells and below 100 nM against ALK kinase. The matching figures for `Cc1n[nH]c2nc(-c3ccc(O)cc3F)c(C#N)c(-c3ccc(S(=O)(=O)O)o3)c12` [Compound 137]: above 10000 nM and 100 to 1000 nM. For `N#Cc1c(-c2ccc(O)cc2)nc2[nH]ncc2c1-c1ccco1` [Compound 44] the same measures were 100 to 1000 nM and below 100 nM.

`N#Cc1c(-c2ccc(O)cc2F)nc2[nH]nc(-c3ccncc3)c2c1-c1ccc(N2CCNCC2)cc1` [Compound 201]: the 50% inhibitory concentration (IC50) in the experiment on karpas 299 cells was above 10000 nM; against ALK kinase it was below 100 nM. Consider `N#Cc1c(-c2ccc(O)cc2F)nc2[nH]nc(N)c2c1-c1ccc(N2CCC(N3CCCC3)CC2)cc1` [Compound 200], for which the half-inhibitory concentration (IC50) in the experiment with karpas 299 cells was 100 to 1000 nM; at ALK kinase it was below 100 nM. For `Cc1n[nH]c2cc(-c3ccc(O)cc3F)c(C#N)c(-c3ccc(CN)o3)c12` [Compound 80] the same measures were 1000 to 10000 nM and 100 to 1000 nM.

As for `Cc1n[nH]c2nc(-c3ccc(O)c(Cl)c3)c(C#N)c(-c3ccc(N4CCNCC4)cc3)c12` [Compound 180], the 50% inhibitory concentration (IC50) in the experiment on karpas 299 cells is 100 to 1000 nM; against ALK kinase, below 100 nM. Regarding `Cc1n[nH]c2nc(-c3ccc(O)c(Br)c3)c(C#N)c(-c3ccc(N4CCNCC4)cc3)c12` [Compound 175], the values for the IC50 in the experiment with karpas 299 cells and against ALK kinase were 1000 to 10000 nM and 100 to 1000 nM, respectively. The matching figures for `N#Cc1c(-c2ccc(O)cc2)nc2[nH]ncc2c1-c1ccc(N2CCNCC2)cc1` [Compound 59]: 1000 to 10000 nM and 100 to 1000 nM. The matching figures for `Cc1n[nH]c2nc(-c3c(F)cc(O)cc3F)c(C#N)c(-c3ccc(N4CC[C@@H](N)C4)o3)c12` [Compound 155]: 1000 to 10000 nM and below 100 nM. The matching figures for `N#Cc1c(-c2ccc(O)cc2F)nc2[nH]nc(-c3ccccc3)c2c1-c1ccc(N2CCNCC2)cc1` [Compound 206]: 100 to 1000 nM and below 100 nM. On to `Cc1n[nH]c2nc(-c3ccc(O)cc3F)c(C#N)c(-c3ccc(N4CCOCC4)o3)c12` [Compound 171], for which the 50% inhibitory concentration (IC50) in the experiment on karpas 299 cells and against ALK kinase was 100 to 1000 nM throughout. In the case of `N#Cc1c(-c2ccccc2)nc2[nH]nc(-c3cccs3)c2c1-c1ccc(N2CCNCC2)cc1` [Compound 219], the IC50 with karpas 299 cells and at ALK kinase was 1000 to 10000 nM in each case. `Cc1cc(-c2nc3[nH]nc(-c4cccs4)c3c(-c3ccc(N4CCNCC4)cc3)c2C#N)c(F)cc1O` [Compound 278]: the values for the 50% inhibitory concentration (IC50) in the experiment on karpas 299 cells and on ALK kinase were 100 to 1000 nM and below 100 nM, respectively. Regarding `Cc1n[nH]c2nc(-c3ccc(O)cc3)c(C#N)c(-c3ccc(-c4ccc(N)cc4)o3)c12` [Compound 273], the IC50 is above 10000 nM with karpas 299 cells and 100 to 1000 nM against ALK kinase. The matching figures for `Cc1n[nH]c2nc(-c3ccc(O)cc3F)c(C#N)c(-c3ccc(OCCCN(C)C)cc3)c12` [Compound 178]: 100 to 1000 nM and below 100 nM.

Consider `Cc1c(C#N)c(-c2ccc(O)cc2F)nc2[nH]nc(-c3ccc(N4CCN(C)CC4)nc3)c12` [Compound 115], for which the 50% inhibitory concentration (IC50) in the experiment on karpas 299 cells is 1000 to 10000 nM; against ALK kinase, 100 to 1000 nM.

On to `CC(C)(C)C(=O)Oc1ccc(-c2nc3[nH]nc(-c4cccs4)c3c(-c3ccc(N4CCNCC4)cc3)c2C#N)c(F)c1` [Compound 296], for which the half-inhibitory concentration (IC50) in the experiment with karpas 299 cells and against ALK kinase was 100 to 1000 nM each time.

In the case of `CCOC(=O)c1c(-c2c(F)ccc(F)c2F)nc2[nH]nc(C)c2c1-c1ccc(N2CCNCC2)cc1` [Compound 252], the values for the IC50 with karpas 299 cells and against ALK kinase were 1000 to 10000 nM and 100 to 1000 nM, respectively. `N#Cc1c(-c2ccc(O)cc2F)nc2[nH]ncc2c1-c1ccc(CN2CCOCC2)o1` [Compound 84]: the IC50 is 1000 to 10000 nM with karpas 299 cells and 100 to 1000 nM at ALK kinase. `Cc1n[nH]c2nc(-c3ccc(O)cc3F)c(C#N)c(-c3ccc([N+](=O)[O-])cc3)c12` [Compound 143]: the IC50 in the experiment on karpas 299 cells was above 10000 nM; against ALK kinase it was 1000 to 10000 nM. In the case of `Cc1n[nH]c2nc(-c3ccc(O)cc3F)c(C#N)c(-c3ccc(OCCCN4CCNCC4)cc3)c12` [Compound 213], the IC50 was 1000 to 10000 nM in the experiment with karpas 299 cells and below 100 nM against ALK kinase. For `Cc1n[nH]c2nc(-c3ccc(O)cc3F)c(C#N)c(-c3ccc(N4CC[C@@H](N)C4)o3)c12` [Compound 122], the IC50 in the experiment with karpas 299 cells was 1000 to 10000 nM; at ALK kinase it was below 100 nM.

Consider `N#Cc1c(-c2c(F)ccc(F)c2F)nc2[nH]nc(N)c2c1-c1ccc(N2CCNCC2)cc1` [Compound 212], for which the IC50 is above 10000 nM in the experiment on karpas 299 cells and 1000 to 10000 nM against ALK kinase.

For the compound `CN1CCN(Cc2ccc(-c3c(C#N)c(-c4ccc(O)cc4F)nc4[nH]ncc34)o2)CC1` [Compound 85], the figures for the half-maximal inhibitory concentration (IC50) with karpas 299 cells and against ALK kinase were 1000 to 10000 nM and 100 to 1000 nM, respectively. `Cc1n[nH]c2nc(-c3ccc(O)cc3F)c(C#N)c(-c3ccc(N4CCC(N(C)C)C4)o3)c12` (stereo not shown) [Compound 159]: the results for the concentration for half-maximal inhibition (IC50) in the experiment with karpas 299 cells and against ALK kinase were 100 to 1000 nM and below 100 nM, respectively. For `CCOC(=O)c1c(-c2ccc(O)cc2)nc2[nH]nc(C)c2c1-c1ccc(C)o1` [Compound 223] the same measures were 100 to 1000 nM and below 100 nM. In the case of `Cc1n[nH]c2nc(-c3ccc(O)cc3F)c(C#N)c(C3C[C@@H]3C(=O)NCC3CCNCC3)c12` (stereo partly shown) [Compound 138], the IC50 in the experiment with karpas 299 cells was above 10000 nM; on ALK kinase, 100 to 1000 nM. Regarding `COC(=O)c1c(-c2ccc(OC(=O)C3CC3)cc2F)nc2[nH]nc(C)c2c1-c1ccc(N2CCNCC2)cc1` [Compound 306], on ALK kinase, the IC50 is below 100 nM. The same measure, in the same setting: the same measure for `N#Cc1c(-c2ccc(OC(=O)c3ccccc3)cc2F)nc2[nH]nc(N)c2c1-c1ccc(N2CCNCC2)cc1` [Compound 304]: 1000 to 10000 nM. `COC(=O)c1c(-c2ccc(O)cc2)nc2[nH]nc(N)c2c1-c1ccc(N2CCNCC2)cc1` [Compound 305] registered an IC50 on ALK kinase below 100 nM.

Take `Cc1n[nH]c2nc(Cc3ccc(F)cc3F)c(C#N)c(-c3ccc(N4CCNCC4)cc3F)c12` [Compound 302]: the IC50 on ALK kinase was above 10000 nM. Still for that read-out and setting: next, `COC(=O)c1c(-c2ccc(O)cc2)nc2[nH]nc(N)c2c1-c1ccc(N2CCN(C)CC2)cc1` [Compound 307]: below 100 nM; `N#Cc1c(-c2ccc(O)cc2)nc2[nH]ncc2c1-c1ccc(OCCN2CCOCC2)cc1` [Compound 73]: 100 to 1000 nM; `N#Cc1c(-c2ccc(O)cc2)nc2[nH]nc(N)c2c1-c1ccc(N2CCNCC2)cc1` [Compound 303]: 1000 to 10000 nM.

The values are drawn from patent publication US8889711B2, “Pyrazolopyridine derivatives as anticancer agent” (Pierre Fabre Medicament, priority 2009, dated 2014).
